Series [1] in a line: Determination of Log D value (flask shaking method). The class given is physicochemical. As to conditions: pH 6.8; partition between n-octanol and second solution for the disintegration test (16th revised Japanese Pharmacopoeia), room temperature. The protocol:
More specifically, the Log D is more preferably 1.6 or more and 2.3 or less, still more preferably 1.8 or more and 2.2 or less, and particularly preferably 1.8 or more and 2.1 or less. Here, the Log D value in the present invention is a compound partition coefficient between n-octanol and a second solution of a disintegration test of the 16th revised Japanese Pharmacopoeia.
The Log D value was determined using a flask shaking method, where a test compound partition coefficient between n-octanol and the second solution for the disintegration test defined in the 16th revised Japanese Pharmacopoeia was calculated. Specifically, in a microtube containing 2 mg of the test compound, n-octanol (0.25 mL) and the second solution for the disintegration test (0.25 mL) were mixed. The tube was shaken in a multi shaker at room temperature for 60 minutes, and allowed to stand until the two phases were completely separated. In the microtube, 10 μL of an n-octanol phase was diluted with 190 μL of 85% methanol and mixed, thereby obtaining an organic phase test solution. 100 μL of the second solution phase for the disintegration test was diluted with 100 μL of 50% methanol, and mixed, thereby obtaining an aqueous phase test solution. The organic phase test solution and the aqueous phase test solution were filtered, respectively, and the concentration of the test compound in these test solutions were measured, using high performance liquid chromatography. Then, from the measured concentration and dilution rate, the Log D was calculated.
That is, the Log D of the present specification is represented by the following equation: Log D=Log10([concentration of test compound in organic phase test solution]/[concentration of test compound in aqueous phase test solution])+1 [Equation 1]
The second solution for the disintegration test herein refers to, as defined in the 16th revised Japanese Pharmacopoeia, a liquid obtained by adding to 250 mL of a 0.2 mol/L potassium dihydrogenphosphate reagent, 118 mL of a 0.2 mol/L sodium hydroxide reagent, and water for adjusting to 1000 mL volume.

A further series has as its target T1, human sGC (Homo sapiens, UniProt Q02153).
T1 construct: expressed in transfected cells; host or cells: CHO-K1 cells (Chinese hamster ovary), stably co-expressing mouse CNGA2 as the calcium read-out channel
T1 sequence (Q02153 1-619): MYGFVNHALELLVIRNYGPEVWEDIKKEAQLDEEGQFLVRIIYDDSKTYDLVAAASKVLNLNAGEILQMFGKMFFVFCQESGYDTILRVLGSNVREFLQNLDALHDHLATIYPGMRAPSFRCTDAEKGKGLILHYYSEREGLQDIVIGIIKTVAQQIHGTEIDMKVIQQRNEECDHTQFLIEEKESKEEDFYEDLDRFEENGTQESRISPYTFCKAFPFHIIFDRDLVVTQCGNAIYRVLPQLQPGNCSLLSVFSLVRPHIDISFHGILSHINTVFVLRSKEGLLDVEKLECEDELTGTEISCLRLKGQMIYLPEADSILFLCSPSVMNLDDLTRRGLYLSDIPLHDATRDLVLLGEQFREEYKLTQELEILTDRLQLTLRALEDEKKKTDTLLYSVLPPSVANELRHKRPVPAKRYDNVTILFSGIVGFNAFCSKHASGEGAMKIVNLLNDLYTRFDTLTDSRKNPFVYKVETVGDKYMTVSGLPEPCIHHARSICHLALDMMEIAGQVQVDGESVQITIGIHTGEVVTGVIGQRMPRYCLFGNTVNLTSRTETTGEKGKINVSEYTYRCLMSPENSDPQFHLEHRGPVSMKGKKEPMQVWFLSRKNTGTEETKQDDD
T1 sequence (Q02108 1-690 partner): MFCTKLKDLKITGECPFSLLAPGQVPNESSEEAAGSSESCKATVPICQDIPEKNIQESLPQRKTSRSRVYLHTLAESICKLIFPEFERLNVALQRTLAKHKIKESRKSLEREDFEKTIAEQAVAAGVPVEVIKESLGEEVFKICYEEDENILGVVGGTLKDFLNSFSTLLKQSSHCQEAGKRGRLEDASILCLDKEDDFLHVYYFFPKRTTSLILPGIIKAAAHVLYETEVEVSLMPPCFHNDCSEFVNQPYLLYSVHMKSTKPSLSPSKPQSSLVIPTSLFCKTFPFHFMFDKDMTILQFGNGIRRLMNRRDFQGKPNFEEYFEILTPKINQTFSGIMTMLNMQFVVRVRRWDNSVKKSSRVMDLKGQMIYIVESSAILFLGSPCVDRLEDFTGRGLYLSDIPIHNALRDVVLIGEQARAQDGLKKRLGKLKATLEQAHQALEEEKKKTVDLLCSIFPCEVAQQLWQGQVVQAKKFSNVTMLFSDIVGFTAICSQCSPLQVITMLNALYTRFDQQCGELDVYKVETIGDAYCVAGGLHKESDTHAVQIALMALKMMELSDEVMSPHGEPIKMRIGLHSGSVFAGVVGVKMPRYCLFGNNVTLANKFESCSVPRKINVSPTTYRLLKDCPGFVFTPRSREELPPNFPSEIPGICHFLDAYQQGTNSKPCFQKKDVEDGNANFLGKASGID
The series can be described thus: Measurement of sGC activating effect in CHO-K1 cells stably expressing human sGC and mouse CNGA2. The series is classed as cell-based. The conditions noted are these: CHO-K1 cells expressing human sGC and mouse CNGA2, Fura2 calcium readout, 10 μmol/L ODQ in assay buffer. The protocol:
Chinese Hamster ovary cells (CHO-K1 cells) modified for stably expressing human sGC α subunit and β subunit, and a mouse cyclic nucleotide gated channel (CNGA2) were used in the test.
The CHO-K1 cells stably expressing human sGC and mouse CNGA2 were cultured at 37° C. in a F-12 medium supplemented with 10% (v/v) fetal bovine serum (FBS), penicillin (100 U/mL), streptomycin (100 μg/mL), G418 (250 μg/mL), and Zeocin (250 μg/mL). The cells were suspended in a culture medium, seeded in a 96 well plate, and cultured at 37° C. for 24 hours. The cells were washed with an assay buffer 1 (140 mmol/L of sodium chloride, 5 mmol/L of potassium chloride, 0.5 mmol/L of magnesium chloride, 0.01 mmol/L of calcium chloride, 10 mmol/L of glucose, 0.4 mmol/L of magnesium sulfate, 10 mmol/L of 4-(2-hydroxyethyl)piperazine-1-yl ethanesulfonic acid, 125 μmol/L of sulfinpyrazone, pH 7.4), and then an indicator solution in which Fura2-AM as a fluorescent Ca2+ indicator is dissolved in assay buffer 1 at a concentration of 5 μmol/L was added thereto, and cultured at 37° C. for 60 minutes. The culture medium was removed, the cells were washed with assay buffer 1, the test compound solution was added thereto, and cultured at room temperature for 10 minutes. The plate was mounted on a fluorescence microplate reader (FlexStation II, available from Molecular Devices) with setting of excitation wavelengths of 340 and 380 nm and a detection wavelength of 510 nm, an intracellular calcium concentration was measured as a fluorescent intensity ratio obtained from each excitation wavelength.
In this test, the solution of the test compound was prepared by dissolving each test compound in DMSO at a concentration of 10 mmol/L, and then diluting the solution with assay buffer 2 (140 mmol/L of sodium chloride, 5 mmol/L of potassium chloride, 0.5 mmol/L of magnesium chloride, 1 mmol/L of calcium chloride, 10 mmol/L of glucose, 0.4 mmol/L of magnesium sulfate, 10 mmol/L of 4-(2-hydroxyethyl)piperazine-1-yl ethanesulfonic acid, 125 μmol/L of sulfinpyrazone, 100 μmol/L of isobutylmethylxanthine, 10 μmol/L of 1H-[1,2,4]-oxadiazole [4,3-a]quinoxaline-1-on (hereinafter, referred to as ODQ), pH 7.4), in order to adjust the concentration of 10 μmol/L for testing. As a control solution, a DMSO diluted solution was used, instead of the test compound solution.
The activity of the test compound was calculated as an increase rate (%) of the sGC activity in the test compound solution relative to the sGC activity in the control solution, by dividing a fluorescent intensity ratio in adding the test compound by a fluorescent intensity ratio of the control solution, and subtracting the sGC activity in the control solution (100%) therefrom. An EC50 value was calculated from the activity of the test compound at concentrations of 0.0001, 0.001, 0.003, 0.01, 0.03, 0.1, 1, and 10 μmol/L, using a 4 parameter losgistic model from Assay Explorer (available from Dssault Systèmes BIOVIA).

Broadly, the logD is the decadic logarithm of the distribution of all forms, ionised or not, between an organic phase and buffer at a given pH. A higher logD goes with higher lipophilicity. Broadly, the EC50 is the concentration needed to bring the measured effect to its halfway point.

Turning to `N#Cc1cccc([C@H](CN(CCCCC(=O)O)Cc2ccc(C(=O)O)cc2)OCc2ccc(CCc3ccccc3)cc2)c1` [Compound No. 1, (−)-4-([N-(4-carboxybutyl)-N-[(2R)-2-(3-cyanophenyl)-2-[4-(2-phenylethyl)benzyloxy]ethyl]amino]methyl)benzoic acid], the logD in series [1] was determined as 2.03. Besides, the half-maximal effective concentration (EC50) on human sGC came to 8.8 nM.

With `CC(C)(C)c1cccc(CO[C@@H](CN(CCCCC(=O)O)Cc2ccc(C(=O)O)cc2)c2cccc(Cl)c2)c1` [Compound No. 2, (−)-4-([N-[2-(3-tert-butylbenzyloxy)-(2R)-2-(3-chlorophenyl)ethyl]-N-(4-carboxybutyl)amino]methyl)benzoic acid], the pH-dependent lipophilicity (logD) in series [1] was found to be 2.14. Also, the half-maximal effective concentration (EC50) at human sGC worked out at 1.54 nM.

In series [1], `O=C(O)CCCCN(Cc1ccc(C(=O)O)cc1)C[C@H](OCc1ccc(CCc2ccccc2)cc1F)c1ccccc1` [Compound No. 3, (−)-4-([N-(4-carboxybutyl)-N-[(2R)-2-[2 fluoro-4-(2-phenylethyl)benzyloxy]-2-phenylethyl]amino]methyl)benzoic acid] returned a logD of 1.99. In addition, the EC50 at human sGC was determined as 2.35 nM.

In series [1], `O=C(O)CCCCN(Cc1ccc(C(=O)O)cc1)C[C@H](OCc1ccc(CCc2ccccc2)s1)c1ccccc1` [Compound No. 4, (−)-4-[(N-(4-carboxybutyl)-N-[(2R)-2-[5-(2-phenylethyl)thiophene-2-ylmethoxy]-2-phenylethyl]amino)methyl]benzoic acid] came in with a logD of 1.8. At human sGC, the EC50 is 1.61 nM.

In series [1], `O=C(O)CCCCN(Cc1ccc(C(=O)O)cc1)C[C@H](OCc1ccc(Oc2ccc(Cl)cc2)cc1)c1ccccc1` [Compound No. 5, (−)-4-([N-(4-carboxybutyl)-N-[(2R)-2-[4-(4-chlorophenyloxy)benzyloxy]-2-phenylethyl]amino]methyl)benzoic acid] yielded a logD of 2.17. The EC50 on human sGC worked out at 6.49 nM.

In the case of `O=C(O)CCCCN(Cc1ccc(C(=O)O)cc1)CC(OCc1ccc(CCc2ccccc2)cc1)c1cccs1` (stereo not shown) [Compound No. 7, ([N-(4-carboxybutyl)-N-[2-[4-(2-phenylethyl)benzyloxy]-2-(2-thienyl)ethyl]amino]methyl)benzoic acid], the pH-dependent lipophilicity (logD) in series [1] worked out at 2.11. The EC50 at human sGC was 3.92 nM.

In series [1], `CC(C)(C)c1cccc(COc2ccccc2CCN(CCCCC(=O)O)[C@H]2CCCc3cc(C(=O)O)ccc32)c1` [Compound No. 9, (+)-(5S)-5-[N-[2-[2-(3-tert-butylbenzyloxy)phenyl]ethyl]-N-(4-carboxybutyl)amino]-5,6,7,8-tetrahydronaphthalene-2-carboxylic acid] displayed a pH-dependent lipophilicity (logD) of 2.09. The EC50 at human sGC came to 7.09 nM.

In the case of `CC(C)c1ccc(COc2ccccc2CCN(CCCCC(=O)O)[C@H]2CCCc3cc(C(=O)O)ccc32)cc1` [Compound No. 10, (+)-(5S)—[N-(4-carboxybutyl)-N-[2-[2-(4-isopropylbenzyloxy)phenyl]ethyl]amino]-5,6,7,8-tetrahydronaphthalene-2-carboxylic acid], the logD in series [1] turned out to be 1.88. For the same molecule, the EC50 on human sGC amounted to 9.63 nM.

In the case of `O=C(O)CCCCN(Cc1ccc(C(=O)O)cc1)C[C@H](OCc1cccc(CCc2ccccc2)c1)c1ccccc1` [Compound No. 11, (−)-4-([N-(4-carboxybutyl)-N-[(2R)-2-[3-(2-phenylethyl)benzyloxy]-2-phenylethyl]amino]methyl)benzoic acid], the logD in series [1] was 1.94. For the same molecule, the EC50 on human sGC is 1.99 nM.

In series [1], `O=C(O)CCCCN(CCc1ccccc1OCc1ccc(CCc2ccccc2)cc1)[C@H]1CCc2cc(C(=O)O)ccc21` [Compound No. 12] yielded a logD of 1.95. Moreover, the EC50 on human sGC amounted to 11.9 nM.

On to `O=C(O)CCCCN(Cc1ccc(C(=O)O)cc1)CC(OCc1ccc(CCc2ccccc2)cc1)c1ccc(F)cc1` (stereo not shown) [Compound No. 13, 4-([N-(4-carboxybutyl)-N-[2-(4-fluorophenyl)-2-[4-(2-phenylethyl)benzyloxy]ethyl]amino]methyl)benzoic acid], for which the logD in series [1] is 2.19. The EC50 on human sGC was 26.5 nM.

Source of the values: patent US10682323B2, “Therapeutic agent for glaucoma” (TOA EIYO LTD., priority 2016, dated 2020).
